These results are taken from patent publication US20140316004A1, “TREATMENT OF POULTRY FOR REDUCING THE FEED CONVERSION RATE OR FOR REDUCING THE INCIDENCE OF ASCITES” (TAMINCO N.V., priority 2006, published 2014).

For test [1] the following is noted: 1000 mg pangamic acid per kg of feed; not affected, same as control group; cited from earlier work.
Test [2] has as its system ascites. The following applies: coenzyme Q added to high-calorie pelletized feed, growth rate higher than 50 g/day; cited from earlier work.
Test [3] relates to ascites. Description: Broiler slaughter test: incidence of ascites and ascites heart index at autopsy. The format is in vivo, broilers. From the text:
(§1) To examine all the effects associated with the supplementation of dimethylglycine in fowl feed, a test was setup with broilers as model species. In this slaughter test with 64 broiler hens, 14-day old chickens were bred for 26 days, i.e. till the age of 40 days. At the beginning of the test the broilers were ad random divided in 16 groups of 4 specimens. The birds were fed with one type of feed from the first day on till the end of the test period. The type of feed was attributed on a random basis to the different housings. The animals were setup with a colored ring around their leg for identification purposes within each housing. The control feed was based on a commercial broiler crumble enriched with 5% corn oil to increase the oxidative stress in the feed. Further 1% celite was mixed into the feed as external marker to allow the determination of the apparent nutrient digestibility. The feed had the following composition: 87.65% dry matter, 6.13% ash, 18.05% crude protein, 9.13% crude fat, 4.32% crude fibre and 50.01% other carbohydrates (including 89% starch and 2% sugar). It has a (calculated) metabolizable energy value of about 13.4 MJ/kg.
(§2) In the second type of feed 167 mg of DMG was added per kilogram to the same composition of feed as described for the control feed. Over the entire test period, the broilers consumed on average about 25 mg DMG per bird per day. The housing of the broilers consisted out of circular housings with an open roof and bottom and with a total surface of 0.72 m^2. The material of the fencing was a flexible wire netting with a height of 1 m and mazes of 2×2 cm and thickness of 2 mm. The bottom was strewed with a thick layer of turf with on top a layer of wood-shavings. Feed and water were ad libitum available at all times. The average environmental temperature was maintained at 15° C. to increase the occurrence of ascites (Shlosberg A., Zadikov I., Bendheim U., Handji V., Berman E. Avian Pathology, 21, 369-382 (1992)). A conventional light scheme of 23 hours light:1 hour dark was applied
Finally there was also an autopsy on all chickens. First, the carcass weight was determined by dissection of the head, the paws, evisceration and the deduction of the average feather weight. Next, the weight of the breast, buttock and thigh muscle were determined. Also the heart, liver and abdominal fat were measured. Macroscopic lesions related to ascites were visually reviewed and described as indicated by Scheele et al. (2003) (Scheele, C. W., Van Der Klis, J. D., Kwakernaak, C., Buys, N., Decuypere, E., British Poultry Science, 44(3), 484-489 (2003)), these were: accumulation of liquid in the abdomen, a hydropericard and right heart dilatation. The latter was quantified by the ascites heart index (AHD being the ratio of the dry weight of the right ventricle to the dry weight of both ventricles after freeze drying.

Test [4] in a line: Broiler slaughter test: production performance (mortality, growth rate, feed conversion rate). Format: in vivo, broilers. To be noted: 167 mg DMG per kg feed.
Description: as §1, §2
The daily growth during the two periods (between the first and fifteenth day and between the sixteenth and twentysixth day) was calculated for each surviving animal. The feed uptake for each housing was also measured during both periods. The commercial feed conversion rate was calculated for each of the housings for both periods (FCRI and FCR II) and for the total growth period. This commercial feed conversion rate was calculated by dividing the total feed consumption by the weight gain of the birds which stayed alive during the entire experiment, including also the feed consumption of the birds that died. To determine only the non-therapeutic effect of DMG on the feed conversion rate, the actual feed conversion rate of the living birds was also calculated more particularly on the basis of weight gain and the feed consumed by these living birds (based on the weight gain of the birds that died, the amount of feed consumed by these birds was detracted from the total feed consumption).

For `CN(C)CC(=O)OC[C@@H](O)[C@@H](O)[C@H](O)[C@@H](O)C(=O)O` [pangamic acid, 6-O-(dimethylaminoacetyl)-D-gluconic acid], the feed conversion rate entry in test [1] was “about 2.5”.

coenzyme Q: in test [2], the “mortality due to ascites” value is recorded as “reduced considerably”.

For `CN(C)CC(=O)O` [DMG, N,N-dimethylglycine], the “Ascites (%)” value in test [3] (167 mg DMG per kg feed, 26-day test, 15° C) is reported as 6.25%. Further, in test [3] (167 mg DMG per kg feed, autopsy, all animals), the “AHI, all animals (ascites heart index)” value came out at 0.242. Besides, the “AHI, surviving animals (ascites heart index)” value in test [3] (167 mg DMG per kg feed, autopsy, surviving animals) turned out to be 0.241. Moreover, the “Influence DMG (%) on AHI, all animals” value in test [3] (versus control, all animals) is −17.5%. The “Influence DMG (%) on AHI, surviving animals” value in test [3] (versus control, surviving animals) is −19.2%. For the same compound, in test [4] (26-day test, 15° C, feed enriched with 5% corn oil), the “Mortality (%)” value was found to be 6.25%. Moreover, in test [4] (days 1-15), the “Growth rate (g/d) Phase I (days 1-15)” value came out at 70 g/day. In addition, the “Commercial feed conversion FCR I (days 1-15)” value in test [4] (days 1-15, includes feed of birds that died) was 2.23. For the same compound, the “Actual feed conversion FCR I (days 1-15)” value in test [4] (days 1-15, living birds only) was 2.07. Further, in test [4] (days 1-26), the “Growth rate (g/d) Total (days 1-26)” value was determined as 77 g/day. Besides, in test [4] (days 1-26, includes feed of birds that died), the “Commercial feed conversion FCR total (days 1-26)” value came to 2.19. In addition, in test [4] (days 1-26, living birds only), the “Actual feed conversion FCR total (days 1-26)” value was found to be 2.09. The “Growth rate (g/d) Phase II (days 15-26)” value in test [4] (days 15-26) amounted to 87 g/day. Also, in test [4] (days 15-26, includes feed of birds that died), the “Commercial feed conversion FCR II (days 15-26)” value is listed as 2.17. Moreover, the “Actual feed conversion FCR II (days 15-26)” value in test [4] (days 15-26, living birds only) is recorded as 2.13.
